EP1196154B1, “INHIBITION OF RENAL UPTAKE OF RADIOMOLECULES WITH A COMBINATION OF LYSINE AND ARGININE” (MALLINCKRODT, INC., priority 1999, dated 2001)
“And” between values parts separate entries of the source, which are not always exact repeats. Equal entries are not always repeated. Values belong to the compound of their own block, whether it stands above or below them.

Key:
kidneys [1] = conditions: Bernard et al.; cited from earlier work
kidneys [2] = assay: Renal uptake of [^111In-DTPA-D-Phe^1]octreotide in rats with amino acid administration; type: in vivo; conditions: for inhibition at 400 mg/kg: Rattus norvegicus
Method: Furthermore, it has been described by De Jong et al. in J. Nucl. Med 37(8): 1388-1392 (1996) that uptake in the rat kidneys of the [^111In-DTPA-D-Phe^1]octreotide can be inhibited by 50% by intravenous administration of the amino acid L-lysine alone (400 mg/kg). In a further article by Bernard et al. in J. Nucl.
L-arginine alone gave a reduction of 20-30% at an equimolar dose. In human studies 15, 21 and 40% reduction of kidney uptake of [^111In-DTPA-D-Phe^1]octreotide was reached using a dose of 25, 50 and 75 g L-lysine, respectively. […] Hyperkalemia may result in acute and life-threatening cardiotoxicity.

[3] = Vomiting and symptoms in patients during amino acid infusion; type: in vivo, humans
Method: 26 patients received 1 to 5 therapeutic doses of 1-10 GBq ^90Y-DOTA,Tyr^3-octreotide, with concomitant infusion of a 2030 mL cocktail of various amino acids in 4 hours, starting 30 min. before the administration of the radiopharmaceutical (see MATERIALS, paragraph B. for exact details). In 11 of these 26 patients (42%), [being 20 of 84 treatments (24%)] one or more episodes of vomiting occurred, up to 30 episodes of severe vomiting per treatment.
In one of these 11 patients the vomiting was so severe during the 2 treatments with the above described regimen, that it was decided to use an infusion with 50 g of L-lysine instead of the infusion with the cocktail of various amino acids concomitant with their 3rd and 4th therapy with ^90Y-DOTA,Tyr^3-octreotide.
8 patients received multiple therapeutic doses of 7-11 GBq ^111In-pentetreotide. All received once a concomitant infusion of a 2030 mL cocktail of various amino acids in 4 hours, starting 30 min. before the administration of the radiopharmaceutical (see MATERIALS, paragraph B. for exact details). In 4 of these 8 patients (50%) vomiting occurred.
In these same 8 patients only 3 episodes […] of vomiting occurred during 22 treatments with 7-11 GBq ^111In-pentetreotide while they received 25 or 50 grams of L-lysine in 500 to 2000 mL (see MATERIALS, paragraph C. for exact details) over 4 hours, starting 30 min. before administration of the radiopharmaceutical, as concomitant infusions.
In an experiment of the invention 11 patients received an infusion over 4 hours of a solution containing 25 g L-lysine and 25 g L-arginine in 1000 mL (Lys/Arg; see MATERIALS, paragraph A. for exact formulation). Thirty min. after the start of the infusion they received a diagnostic dose of 220 MBq ^111Inpentetreotide. Ten patients had no symptoms during the infusion, in particular no vomiting. […] During the Lys/Arg infusion they vomited twice.
Five patients received the Lys/Arg infusion in the same manner as described above, but they received a therapeutic dose of 1850 MBq [^177Lu-DOTA,Tyr^3]octreotate, 30 min. after the start of the Lys/Arg infusion. None of these 5 patients had any symptoms at all, in particular no vomiting.
Until now the Lys/Arg infusion, 1000 mL in 4 hours concomitant with therapeutic doses of radioactive labelled peptides, has been administered to more than 30 patients, in total more than 80 occasions. Vomiting occurs in less than 5% of the occasions, and if it occurs it is most probably due to other causes.

[4] = Serum potassium level in patients during amino acid infusion; type: in vivo, humans
Method: In an experiment of the invention 11 patients received an infusion over 4 hours of a solution containing 25 g L-lysine and 25 g L-arginine in 1000 mL (Lys/Arg; see MATERIALS, paragraph A. for exact formulation). The potassium level of these patients was measured in serum at t=0 hours and after 0.5, 1, 2, 4 and 5 hours.
As a control 6 patients received 75 g L-lysine in 1500 mL during 4 hours (see MATERIALS, paragraph C. for exact formulation).

[5] = Osmolarity of infusion fluids; type: physicochemical; conditions: infusion fluid as prepared
kidneys [6] = assay: Kidney uptake of ^111In-pentetreotide in patients with amino acid infusion (planar scintigraphy and dosimetry); type: in vivo, humans; conditions: for reduction of kidney uptake of [^111In-DTPA-D-Phe^1]octreotide: human studies
Method: A 1000 mL infusion containing 25 g L-lysine and 25 g L-arginine (Lys/Arg; see MATERIALS, paragraph A. for exact formulation) was administered intravenously to patients during 4 hours, starting 30 minutes prior to administration of the radioligand. One radioligand was [^111In-DTPA-D-Phe^1]octreotide (^111In-pentetreotide, OctreoScan®, Mallinckrodt Medical, Petten, The Netherlands) in a diagnostic amount of 220 MBq (9 patients). Each patient was also investigated on a separate occasion with 220 MBq ^111In-pentetreotide, but without any infusion. The other radioligand was [^177Lu-DOTA,Tyr^3]octreotate in a therapeutic amount of 1850 MBq (5 patients). Each patient was also investigated on a separate occasion with 1850 MBq [^177Lu-DOTA,Tyr^3]-octreotate, but without any infusion. The control experiment (5 patients) consisted of infusion of 1000 mL neutral infusion fluid without the amino acids (NaCl 0.45% plus Glucose 2.5%)over 4 hours, starting 30 min. prior to the injection of 220 MBq ^111In-pentetreotide.
24 Hours post infusion the uptake of the radioligand in the kidneys, spleen and liver was measured using planar scintigraphy and dosimetry, and for each patient the ratio between uptake in these organs during infusion with Lys/Arg and without Lys/Arg was calculated (Figures 1, 2 and 3).
At least 5 patients received one of the following amino acid preparations: • 1. AA (2030 mL cocktail of various amino acids; see MATERIALS, paragraph B, for the source and details) • 2. 25 g L-lysine in 500 mL (see MATERIALS, paragraph C, for exact formulation) • 3. 50 g lysine in 2000 mL (see MATERIALS, paragraph C, for exact formulation) • 4. 75 g lysine in 1500 mL (see MATERIALS, paragraph C, for exact formulation) • 5. 25 g L-lysine and 25 g L-arginine in 1000 mL (invention), (Lys/Arg; see MATERIALS, paragraph A. for exact formulation).
The preparations were given intravenously over 4 hours starting 30 minutes before treatment with the radioligand started. The radioligand was ^111Inpentetreotide, either in a diagnostic amount of 220 MBq, or in a therapeutic amount, 7 - 11 GBq. Each patient was his or her own control. The control consisted of treatment with the radioligand but without an amino acid preparation.
At 24 and 48 hours post infusion the ratio between tissue uptake in the left kidney in patients receiving an amino acid composition and the controls was determined by planar scintigraphy and dosimetry.

Compound: NCCCC[C@@H](N)C(=O)O [D-lysine]
- reducing the rat renal uptake of [^111In-DTPA-D-Phe^1]octreotide and ^90Y-DOTA,Tyr^3-octreotide (kidneys [1]): capable of reducing
- inhibition at 400 mg/kg (kidneys [2]): 50%

Compound: N=C(N)NCCC[C@H](N)C(=O)O [L-arginine]
- reduction of renal uptake of [^111In-DTPA-D-Phe^1]octreotide in rats (kidneys [2]; alone, at an equimolar dose (to lysine 400 mg/kg)): 20-30%

Compound: NCCCC[C@H](N)C(=O)O [L-lysine]
- episodes of vomiting during treatments ([3]; 25 or 50 grams in 500 to 2000 mL over 4 hours, 7-11 GBq ^111In-pentetreotide, 3 episodes during 22 treatments, 8 patients): 9%
- tolerability / toxicity ([3]; human studies, doses of 25 and 50 g): well tolerated without any toxicity noted
- vomiting (conclusion from EXAMPLES 4, 5 and 6) ([3]; infusion over 4 hours): seldomly observed
- episodes of vomiting ([3]; one patient, 50 g, 3rd therapy with ^90Y-DOTA,Tyr^3-octreotide): one
- vomiting ([3]; one patient, 50 g, 4th therapy with ^90Y-DOTA,Tyr^3-octreotide): no vomiting at all
- hyperkalemia ([4]; 75 g L-lysine (Table 2), 25 g L-lysine plus 25 g L-arginine (Table 1)): severe hyperkalemia
- patients with a maximum potassium level above the critical value of 6.0 mmol/L ([4]; 75 g in 1500 mL): 3 out of 6
- maximum potassium (K) level in serum ([4]; 75 g in 1500 mL over 4 hours, single patients 12-17): 5.2 mmol/L and 6.8 mmol/L and 6.7 mmol/L and 5.4 mmol/L and 5.0 mmol/L and 6.3 mmol/L
- patients with severe hyperkalemia ([4]; humans, total dose of 75 g): 50%
- osmolarity [5]: ca. 400 mosmol/L
- inhibition at 400 mg/kg (kidneys [2]): 50%
- [^111In-DTPA-D-Phe^1]octreotide uptake reduction in the left kidney, rank among amino acid preparations (Figure 4) (kidneys [6]; 24 and 48 hours post infusion, 75 g L-lysine, 25 g L-lysine plus 25 g L-arginine): highest uptake reduction
- reduction of kidney uptake of [^111In-DTPA-D-Phe^1]octreotide (kidneys [6]; dose of 25 g): 15%
- reduction of kidney uptake of [^111In-DTPA-D-Phe^1]octreotide (kidneys [6]; dose of 50 g): 21%
- reduction of kidney uptake of [^111In-DTPA-D-Phe^1]octreotide (kidneys [6]; dose of 75 g): 40%

- occasions on which vomiting occurs ([3]; human, in vivo): less than 5%
- patients who suffered from vomiting ([3]; human, in vivo): none
- treatments in which vomiting occurred ([3]; human, in vivo): 8%
- patients having a maximum potassium value of 6.0 mmol/L ([4]; human, in vivo): one out of eleven
Compound: Lys/Arg
- tolerability on 4 later occasions in the same patient ([3]; human, in vivo): without any problems
